From patent US5886172A, “Carbapenem-3-carboxylic acid ester derivatives” (Lederle (Japan) Ltd., priority 1995, dated 1999) come the findings set out here.

The test system of data set [1] is S. schottmuelleri 8006. Briefly: Antibacterial activity, agar plate dilution method (MIC). In kind it is cell-based. The conditions noted are these: 37° C., 18 hours. Here is the method: (§1) Antibacterial activity was tested by using an agar plate dilution method in accordance with the standard method of the Japanese Chemotherapy Society [Chemotherapy, vol. 29, 76-79 (1981)].
(§2) Mueller-Hinton (MH) agar liquid media of the test microorganisms were cultured overnight at 37° C. and the resultant culture media were diluted with a buffered saline gelatin (BSG) solution to contain approximately 10^5 cells of the test microorganisms per milliliter. Then, about 5 microliters each of the diluted solutions were inoculated on MH agar media containing the test compound by using a microplanter.
(§3) The test microorganism strains used in this test were all standard ones. The test compound used herein was Compound (22) obtained in Preparation 6, i.e., the compound of formula (II), which is the active metabolite of the compounds of formula (I).

For data set [2], the system named is B. subtilis ATCC 6633. The description is as above. In kind it is cell-based. The note with it: Bacillus subtilis, ATCC6633, 37° C., 18 hours. Here is the method: as §1, §2, §3
The subject of data set [3] is S. aureus FDA209P JC-1. Described as above. The conditions noted are these: Staphylococcus aureus, 37° C., 18 hours. Type of data set: cell-based. Here is the method:
as §1, §2, §3

Data set [4] has as its system S. pyogenes Cook. The data set is described as above. The conditions noted are these: Streptococcus pyogenes, 37° C., 18 hours. In kind it is cell-based. Here is the method:
as §1, §2, §3

Data set [5] has as its system K. pneumoniae PCI-602. The description is as above. Type of data set: cell-based. The note with it: Klebsiella pneumoniae, PCI602, 37° C., 18 hours. How it is done:
as §1, §2, §3

Data set [6] relates to M. morganii IFO 3848. Described as above. Type of data set: cell-based. The conditions noted are these: Morganella morganii, IFO3848, 37° C., 18 hours. Here is the method: as §1, §2, §3
The subject of data set [7] is S. typhi 901. The data set is described as above. Type of data set: cell-based. The conditions noted are these: Salmonella enterica, 18 h. How it is done: as §1, §2, §3
Data set [8] has as its system S. paratyphi 1015. The data set is described as above. In kind it is cell-based. The note with it: Salmonella enterica, 18 h. Here is the method:
as §1, §2, §3

In data set [9] the test system is E. coli K-12 C600. The description is as above. Type of data set: cell-based. The conditions noted are these: Escherichia coli, K12C600, 37° C., 18 hours. How it is done: as §1, §2, §3
In data set [10] the test system is E. coli NIHJ JC-2. The description is as above. Type of data set: cell-based. The note with it: Escherichia coli, NIHJJC2, 37° C., 18 hours. How it is done: as §1, §2, §3
Data set [11] relates to S. marcescens IAM 1184. The description is as above. Type of data set: cell-based. The note with it: Serratia marcescens, IAM1184, 37° C., 18 hours. Here is the method:
as §1, §2, §3

For data set [12], the system named is P. vulgaris OX-19. The description is as above. Type of data set: cell-based. The conditions noted are these: Proteus vulgaris, OX19, 37° C., 18 hours. Here is the method: as §1, §2, §3
The test system of data set [13] is S. typhimurium 11D971. The data set is described as above. In kind it is cell-based. The note with it: Salmonella enterica, 37° C., 18 hours. How it is done: as §1, §2, §3
The test system of data set [14] is P. mirabilis IFO 3849. The data set is described as above. In kind it is cell-based. The note with it: Proteus mirabilis, IFO3849, 37° C., 18 hours. Here is the method:
as §1, §2, §3

Data set [15] deals with S. aureus MS353. The data set is described as above. The conditions noted are these: Staphylococcus aureus, 37° C., 18 hours. In kind it is cell-based. Here is the method: as §1, §2, §3
Data set [16] deals with E. cloacae 963. The description is as above. Type of data set: cell-based. The conditions noted are these: Enterobacter cloacae, 37° C., 18 hours. How it is done:
as §1, §2, §3

Data set [17] concerns S. aureus Terajima. The description is as above. In kind it is cell-based. The note with it: Staphylococcus aureus, 37° C., 18 hours. How it is done:
as §1, §2, §3

Data set [18] relates to S. enteritidis G14. The data set is described as above. In kind it is cell-based. The conditions noted are these: Salmonella enterica, 37° C., 18 hours. Here is the method:
as §1, §2, §3

In data set [19] the test system is M. luteus ATCC 9341. The data set is described as above. In kind it is cell-based. The note with it: Micrococcus luteus, ATCC9341, 37° C., 18 hours. How it is done:
as §1, §2, §3

The subject of data set [20] is E. aerogenes ATCC 13048. The data set is described as above. In kind it is cell-based. The note with it: Klebsiella aerogenes, ATCC13048, 37° C., 18 hours. How it is done: as §1, §2, §3
For data set [21], the system named is P. rettgeri IFO 3850. Described as above. Type of data set: cell-based. The conditions noted are these: Providencia rettgeri, IFO3850, 37° C., 18 hours. How it is done:
as §1, §2, §3

Data set [22] has as its system P. vulgaris HX-19. Described as above. The note with it: Proteus vulgaris, HX19, 37° C., 18 hours. Type of data set: cell-based. How it is done: as §1, §2, §3
Data set [23] can be described thus: Stability Test (storage stability, residual activity by HPLC). Type of data set: physicochemical. The note with it: for Residual activity, initial day: assumed to be 100%; for Residual activity, 1 month: 43800 min; for Residual activity, 3 months: 131400 min; for Retention of potency on storage: conclusion from Table 2; for Residual activity, 1 month / remaining at 730 h: 1 month. How it is done:
Storage stability of (1-methylcyclohexane-carboxy)methyl (1R,5S,6S)-2-[(1-(1,3-thiazolin-2-yl)azetidin-3-yl)thio]-6-[(R)-1-hydroxyethyl]-1-methyl-carbapen-2-em-3-carboxylate [Compound (24)] was tested in comparison with its amorphous form and (cyclohexanecarboxy)methyl (1R,5S,6S)-2-[(1-(1,3-thiazolin-2-yl)azetidin-3-yl)thio]-6-[(R)-1-hydroxyethyl]-1-methyl-carbapen-2-em-3-carboxylate [Compound (C)], which is disclosed in European Patent Publication 632,039 A1.
Each compound in an amount of 20 mg was put in a glass bottle, and left to stand for 3 months in a constant-temperature chamber at 40° C. and at 40° C. /75% of humidity. The activity of each compound was assayed by HPLC after 1 month and 3 months, respectively. Assuming the activity at the beginning (initial day) to be 100%, the decrease in the activity is shown by percent residual activity in Table 2.

[24] abbreviates: 40° C., HPLC, initial day = 100%.
[25] abbreviates: 40° C., 3 months, HPLC, initial day = 100%.
Where [26] appears, read: solid storage, 40° C./75% humidity, HPLC, initial day = 100%.

As usually defined, the MIC is the least concentration at which growth counts as inhibited. Low values mean a more susceptible organism, high ones a less susceptible organism. One may read the amount remaining as what is left of the initial amount, in per cent. Read a high amount remaining as greater stability.

In brackets after ≈: the same amount, converted by molar mass.

With `C[C@@H](O)[C@H]1C(=O)N2C(C(=O)O)=C(SC3CN(C4=NCCS4)C3)[C@H](C)[C@H]12` [Compound (22), (1R,5S,6S)-2-[(1-(thiazolin-2-yl)azetidin-3-yl)thio]-6-[(R)-1-hydroxyethyl]-1-methyl-carbapen-2-em-3-carboxylic acid], the MIC was 0.025 µg/mL (≈ 0.0652 µM) in [1]; 0.025 µg/mL (≈ 0.0652 µM) in data set [2]; 0.013 µg/mL (≈ 0.0339 µM) in data set [3]; at most 0.006 µg/mL in [4]; 0.013 µg/mL (≈ 0.0339 µM) in data set [5]; 0.39 µg/mL (≈ 1.02 µM) in data set [6]. Moreover, the MIC was at most 0.006 µg/mL in data set [7]; 0.05 µg/mL (≈ 0.13 µM) in [8]; 0.1 µg/mL (≈ 0.261 µM) in data set [9]; 0.013 µg/mL (≈ 0.0339 µM) in data set [10]; 0.05 µg/mL (≈ 0.13 µM) in [11]; 0.1 µg/mL (≈ 0.261 µM) in [12]. For the same molecule, the MIC is 0.025 µg/mL (≈ 0.0652 µM) in data set [13]; 0.39 µg/mL (≈ 1.02 µM) in [14]; at most 0.006 µg/mL in data set [15]; 0.05 µg/mL (≈ 0.13 µM) in [16]; at most 0.006 µg/mL in data set [17]; 0.39 µg/mL (≈ 1.02 µM) in data set [18]. Further, the MIC in data set [19] worked out at 0.2 µg/mL (≈ 0.522 µM); in [20] it was 0.1 µg/mL (≈ 0.261 µM); in data set [21], 0.39 µg/mL (≈ 1.02 µM); in [22] it was 0.1 µg/mL (≈ 0.261 µM).
For `C[C@@H](O)[C@H]1C(=O)N2C(C(=O)OCOC(=O)C3(C)CCCCC3)=C(SC3CN(C4=NCCS4)C3)[C@H](C)[C@H]12` [Compound (24) (Amorphous), (1-methylcyclohexane-carboxy)methyl (1R,5S,6S)-2-[(1-(1,3-thiazolin-2-yl)azetidin-3-yl)thio]-6-[(R)-1-hydroxyethyl]-1-methyl-carbapen-2-em-3-carboxylate], the “Residual activity, initial day” value in data set [23] (40° C./75% humidity) and in data set [23] (40° C.) was 100% throughout. Further, the “Residual activity, 1 month” value in data set [23] (setting [24]) came to 67.5%. Further, the “Residual activity, 3 months” value in [23] (setting [25]) was 36.8%. Besides, in data set [23] (listed as amorphous form), the “Retention of potency on storage” value was “rapidly loses its potency”.
Regarding `C[C@@H](O)[C@H]1C(=O)N2C(C(=O)OCOC(=O)C3(C)CCCCC3)=C(SC3CN(C4=NCCS4)C3)[C@H](C)[C@H]12` [Compound (24) (Crystalline), (1-methylcyclohexane-carboxy)methyl (1R,5S,6S)-2-[(1-(1,3-thiazolin-2-yl)azetidin-3-yl)thio]-6-[(R)-1-hydroxyethyl]-1-methyl-carbapen-2-em-3-carboxylate], the “Residual activity, initial day” value in data set [23] (40° C./75% humidity) and in data set [23] (40° C.) was 100% throughout. In addition, the “Residual activity, 1 month” value in [23] (setting [24]) is given as 99.4%. The “Residual activity, 3 months” value in [23] (setting [25]) is on record as 99.2%. Also, in data set [23] (listed as crystalline form of Compound (24)), the “Retention of potency on storage” value was “retains its potency over a long period of time”. The molecule further gave a fraction remaining at 730 h in data set [23] (setting [26]) of 98.9%.
With `C[C@@H](O)[C@H]1C(=O)N2C(C(=O)OCOC(=O)C3CCCCC3)=C(SC3CN(C4=NCCS4)C3)[C@H](C)[C@H]12` [Compound (C) (Crystalline), (cyclohexanecarboxy)methyl (1R,5S,6S)-2-[(1-(1,3-thiazolin-2-yl)azetidin-3-yl)thio]-6-[(R)-1-hydroxyethyl]-1-methyl-carbapen-2-em-3-carboxylate, reference compound], the “Residual activity, initial day” value in [23] (40° C./75% humidity) and in data set [23] (40° C.) was 100% each time. For the same molecule, the amount remaining at 730 h in data set [23] (setting [26]) came out at 73.7%; in data set [23] (solid storage, 40° C., HPLC, initial day = 100%) it was 98.9%. For the same molecule, the fraction remaining at 2190 h in [23] (solid storage, 40° C., 3 months, HPLC, initial day = 100%) was found to be 94.2%.
